Laboratory results reported in publication PMC10064330, “Reversible Dual-Covalent Molecular Locking of the 14-3-3/ERRγ Protein–Protein Interaction as a Molecular Glue Drug Discovery Approach” (Journal of the American Chemical Society, 2023).

Biological target: T1, 14-3-3γ/ERRγ complex (Homo sapiens, UniProt P61981+P62508)
T1 construct: made in house; host or cells: E. coli NiCo21 (DE3)
Assay: Fluorescence anisotropy (FA): 14-3-3γ titration to fluorescein-ERRγ phosphopeptide with 100 μM compound
Format: binding
Conditions: for SF100 / stabilization (SF100) at high TCEP / stabilization of 14-3-3γ/ERRγ complex (SF100, fold): 100 μM compound; for SF100: 50 μM TCEP; for stabilization (SF100) at high TCEP: 1 mM TCEP; for stabilization of 14-3-3γ/ERRγ complex (SF100, fold): 24 h incubation; for stabilization factor SF100, Replicate 1 (Table S2) / stabilization factor SF100, Replicate 2 (Table S2) / stabilization factor SF100, Replicate 3 (Table S2) / stabilization factor SF100, Average (Table S2): KD DMSO control / apparent KD with 100 μM compound, 24 h; for stabilization factor SF100, Average (Table S2): average of three experiments
Procedure: The stabilization of the ERRγ/14-3-3γ complex by the molecular locks was assessed using a fluorescence anisotropy (FA) assay where 14-3-3γ was titrated into a fluorescently labeled ERRγ phosphopeptide in the absence or presence of a 100 μM molecular lock (Figure 2a,b); this compound concentration was selected based on a FA compound titration assay (Figure S1).
Experimental Section Biophysical Assays
14-3-3γ protein expression (FA, TSA, MS assays)
A pPROEX HTb expression vector encoding the human 14-3-3 protein gamma (14-3-3γ) with a N-terminal his6-tag was transformed by heat shock into NiCo21 (DE3) competent cells. Single colonies were cultured in 50 mL LB medium (100 µg/mL ampicillin). After overnight incubation at 37 °C, cultures were transferred to 2 L TB media (100 µg/mL ampicillin, 1 mM MgCl2) and incubated at 37 °C until an OD600 nm of 0.8 -1.2 was reached. Protein expression was then induced with 0.4 mM isopropyl-β-d-thiogalactoside (IPTG), and cultures were incubated overnight at 18 °C. Cells were harvested by centrifugation (8600 rpm, 20 minu tes, 4 °C) and resuspended in lysis buffer (50 mM Hepes, pH 8.0, 300 mM NaCl, 12.5 mM imidazole, 5 mM MgCl2, 2 mM βME) containing cOmplete™ EDTA-free Protease Inhibitor Cocktail tablets (1 tablet/100 ml lysate) and benzonase ( 5 µl/100 ml). After lysis using a C3 Emulsiflex-C3 homogenizer (Avestin), the cell lysate was cleared by centrifugation (20000 rpm, 30 minutes, 4 °C) and purified using Ni2+-affinity chromatography (Ni -NTA superflow cartridges, Qiagen). Typically two 5 mL columns (flow 5 mL/min) were use d for a 2 L culture in which the lysate was loaded on the column , washed with 10 CV wash buffer (50 mM Hepes, pH 8.0, 300 mM NaCl, 25 mM imidazole, 2 mM βME), and eluted in several fractions (2-4 CV) of elution buffer (50 mM Hepes, pH 8.0, 300 mM NaCl, 250 mM imidazole, 2 mM βME). Fractions containing the 14 -3-3 protein were combined and dialyzed into 25 mM HEPES pH 8.0, 100 mM NaCl, 10 mM MgCl2, 500 µM TCEP. Finally, the protein was concentrated to ∼60 mg/mL, analyzed Q-Tof LC/MS, and aliquots were flash-frozen for storage at −80 °C.
14-3-3σΔc C38N protein expression (Crystallography)
A pPROEX HTb expression vector encoding the human 14-3-3 protein sigma truncated after T231 (14-3-3σΔc), mutated C38N, and containing a N-terminal his6-tag was transformed by heat shock into NiCo21 (DE3) competent cells. Single colonies were cultured in 50 mL LB medium (100 µg/mL ampicillin). After overnight incubation at 37 °C, cultures were transferred to 2 L TB media (100 µg/mL ampicillin, 1 mM MgCl2) and incubated at 37 °C until an OD600 nm of 0.8-1.2 was reached. Protein expression was then induced with 0.4 mM isopropyl-β-d-thiogalactoside (IPTG), and cultures were incubated overnight at 18 °C. Cells were harvested by centrifugation (8600 rpm, 20 minutes, 4 °C) and resuspended in lysis buffer (50 mM Hepes, pH 8.0, 300 mM NaCl, 12.5 mM imidazole, 5 mM MgCl2, 2 mM βME) containing cOmplete™ EDTA-free Protease Inhibitor Cocktail tablets (1 tablet/ 100 ml lysate) and benzonase (5 µl/ 100 ml). After lysis using a C3 Emulsiflex-C3 homogenizer (Avestin), […]
chromatography (Ni-NTA superflow cartridges, Qiagen). Typically two 5 mL columns were used for a 2 L culture in which the lysate was loaded on the column , washed with 10 CV wash buffer (50 mM Hepes, pH 8.0, 300 mM NaCl, 25 mM imidazole, 2 mM βME), and eluted with several fractions (2 -4 CV) of elution buffer (50 mM Hepes, pH 8.0, 300 mM NaCl, 250 mM imidazole, 2 mM βME). Fractions containing the 14-3-3 protein were combined and dialyzed into 25 mM HEPES pH 8.0, 200 mM NaCl, 10 mM MgCl 2, 2 mM βME. In addition, 1 mg TEV was added for each 100 mg purified protein to remove the purification tag. The cleaved sample was then again loaded on a 10 mL Ni-NTA column to separate the cleaved product from the expression tag and residual uncleaved protein. The flowthrough was loaded on a Superdex 75 pg 16/60 size exc lusion column (GE Life Sciences) using […]

T1 sequence (P61981 whole entry, other chains not shown): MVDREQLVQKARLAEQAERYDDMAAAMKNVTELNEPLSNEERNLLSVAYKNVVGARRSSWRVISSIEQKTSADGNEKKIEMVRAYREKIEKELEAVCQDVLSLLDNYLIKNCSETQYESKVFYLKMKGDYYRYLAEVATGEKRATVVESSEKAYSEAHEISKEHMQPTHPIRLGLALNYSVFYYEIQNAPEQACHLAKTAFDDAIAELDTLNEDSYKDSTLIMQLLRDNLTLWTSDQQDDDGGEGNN

SMILES: CN(C)CCSSCCN(C)C(=O)c1cccc(F)c1 [compound 1, reference compound]
- SF100: 5
- stabilization (SF100) at high TCEP: completely abolished
- stabilization of 14-3-3γ/ERRγ complex (SF100, fold): five-fold
- stabilization factor SF100, Replicate 1 (Table S2): 5.3
- stabilization factor SF100, Replicate 2 (Table S2): 3.7
- stabilization factor SF100, Replicate 3 (Table S2): 4.6
- stabilization factor SF100, Average (Table S2): 4.6

SMILES: CN(C)CCNC(=O)c1ccc(C=O)c(F)c1 [compound 3]
- stabilization of 14-3-3γ/ERRγ complex (SF100, fold): 1
- stabilization factor SF100, Replicate 1 (Table S2): 1.0
- stabilization factor SF100, Replicate 2 (Table S2): 1.0
- stabilization factor SF100, Replicate 3 (Table S2): 0.9
- stabilization factor SF100, Average (Table S2): 1.0

SMILES: CN(C)CCSSCCN(C)C(=O)c1ccc(C=O)c(F)c1 [compound 5]
- stabilization (SF100) at high TCEP: completely abolished
- stabilization factor SF100, Replicate 1 (Table S2): 27.0
- stabilization factor SF100, Replicate 2 (Table S2): 17.8
- stabilization factor SF100, Replicate 3 (Table S2): 16.5
- stabilization factor SF100, Average (Table S2): 20.4

SMILES: CN(C)CCSSCCN(C)C(=O)c1cc(Br)cc(C=O)c1 [compound 10]
- SF100: 37
- stabilization (SF100) at high TCEP: completely abolished
- stabilization factor SF100, Replicate 1 (Table S2): 37.6
- stabilization factor SF100, Replicate 2 (Table S2): 34.1
- stabilization factor SF100, Replicate 3 (Table S2): 38.8
- stabilization factor SF100, Average (Table S2): 36.9
